From the supplement of paper PMC9386025

Tests used:
Assay in all cases: drug sensitivity score (DSS) (DSS (dimensionless)); higher = more sensitive (stronger drug response)
[1] = tested on: FIMM-PDC1 (patient-derived ovarian cancer cells); conditions: genetic perturbation: none (patient-derived cell culture)
In short: (§1)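 Ovarian cancer cell lines with shRNA induced by 100 ng/ml doxycycline for at least three days, along with patient-derived cultures, were seeded at 1 000 – 1 500 cells per well onto drugs pre-plated in 384-well plates at five concentrations over a 10,000-fold range and incubated for three days at 37 °C and 5.0 % CO2. CellTiter-Glo luminescence measured on a PHERAstar FS served as the viability readout, and each drug's dose-response curve was summarised as a drug sensitivity score following an earlier published method.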

[2] = tested on: FIMM-PDC3 (patient-derived ovarian cancer cells); conditions: genetic perturbation: none (patient-derived cell culture)
In short: as §1

[3] = tested on: FIMM-PDC4 (patient-derived ovarian cancer cells); conditions: genetic perturbation: none (patient-derived cell culture)
In short: as §1

[4] = tested on: FIMM-PDC5 (patient-derived ovarian cancer cells); conditions: genetic perturbation: none (patient-derived cell culture)
In short: as §1

[5] = tested on: FIMM-PDC6 (patient-derived ovarian cancer cells); conditions: genetic perturbation: none (patient-derived cell culture)
In short: as §1

[6] = tested on: FIMM-PDC7 (patient-derived ovarian cancer cells); conditions: genetic perturbation: none (patient-derived cell culture)
In short: as §1

[7] = tested on: JHOS2
In short: as §1

[8] = tested on: Kuramochi
In short: as §1

[9] = tested on: OVSAHO
In short: as §1

[10] = genetic perturbation: DOX-induced PTK7 shRNA knockdown
[11] = genetic perturbation: DOX-induced control shRNA

Row | SMILES | drug sensitivity score [1] | drug sensitivity score [2] | drug sensitivity score [3] | drug sensitivity score [4] | drug sensitivity score [5] | drug sensitivity score [6] | drug sensitivity score [7, 10] | drug sensitivity score [7, 11] | drug sensitivity score [8, 10] | drug sensitivity score [8, 11] | drug sensitivity score [9, 10] | drug sensitivity score [9, 11]
1 | CCCCCCCCCCCCCCCCOP(=O)([O-])OCC[N+](C)(C)C [Miltefosine] | 2.55 | 5.7 | 6.6 | 10.6 | 10.2 | 8.1 | 13 | 5.2 | 4.9 | 4.9 | 5.9 | 3.6
2 | O=C1c2c(O)ccc(O)c2C(=O)c2c(NCCNCCO)ccc(NCCNCCO)c21 [Mitoxantrone] | 4.55 | 6.9 | 5.1 | 6.6 | 4.8 | 3.4 | 5.5 | 7.6 | 2.7 | 2.7 | 5.1 | 3.8
3 | CCS(=O)(=O)Nc1ccc(Oc2ccc(F)cc2F)c(-c2cn(C)c(=O)c3[nH]ccc23)c1 [Mivebresib] | 13.8 | 15.3 | 12.2 | 21.9 | 15.3 | 16.3 | 18.2 | 16.6 | 25.8 | 14.7 | 19.7 | 23.8
4 | Nc1ccccc1NC(=O)c1ccc(CNc2nccc(-c3cccnc3)n2)cc1 [Mocetinostat] | 6.35 | 9.7 | 7.1 | 12.3 | 8.7 | 7.5 | 8 | 3.4 | 9.95 | 4.1 | 10 | 3.8
5 | CCNC(=O)C[C@@H]1N=C(c2ccc(Cl)cc2)c2cc(OC)ccc2-n2c(C)nnc21 [Molibresib] | 1.7 | 3.5 | 3.3 | 7.6 | 4.2 | 6.6 | 6.8 | 5.3 | 8.65 | 4 | 6 | 9.4
6 | N#CCNC(=O)c1ccc(-c2ccnc(Nc3ccc(N4CCOCC4)cc3)n2)cc1 [Momelotinib] | 0.1 | 1.9 | 4.1 | 7.2 | 4.2 | 8 | 8.3 | 6.8 | 0.75 | 2.1 | 3.6 | 1.7
7 | Cc1cc(OCc2nnc(SC3CCCC3)n2-c2cccnc2)ccc1-c1ccc(S(C)(=O)=O)cc1 [NMS-873] | 7.55 | 9.4 | 8.3 | 5.5 | 9.1 | 5 | 7.7 | 5.9 | 8.15 | 6.2 | 5.1 | 7.5
8 | COc1ccc(-c2ccc3ncc4c(c3c2)n(-c2ccc(N3CCNCC3)c(C(F)(F)F)c2)c(=O)n4C)cn1 [NVP-BGT226] | 12.2 | 12.6 | 19.7 | 25.6 | 21.5 | 22.4 | 11 | 15 | 10.1 | 13.4 | 17.8 | 16.2
9 | COc1cc2c(cc1OC(C)C)[C@H](c1ccc(Cl)cc1)N(c1ccc(N(C)C[C@H]3CC[C@H](N4CCN(C)C(=O)C4)CC3)cc1)C(=O)C2 [NVP-CGM097] | 5.45 | 7.4 | 9.2 | 15.4 | 10.9 | 10 | 5.9 | 6.1 | 5.75 | 8 | 5.2 | 8.5
10 | CN[C@@H](C)C(=O)N[C@H](C(=O)N1CCC[C@H]1c1nc(C(=O)c2ccc(F)cc2)cs1)C1CCCCC1 [NVP-LCL161] | 14.1 | 15.7 | 1.7 | 2.7 | 6.9 | 5.1 | 26 | 20.4 | 3.65 | 4.2 | 6 | 4.1
11 | Cn1c(Nc2ccc(C(F)(F)F)cc2)nc2cc(Oc3ccnc(-c4ncc(C(F)(F)F)[nH]4)c3)ccc21 [NVP-RAF265] | 1.4 | 6.7 | 2.9 | 14.6 | 1.3 | 2.8 | < 0 | 3.8 | 0.1 | < 0 | 1.5 | 0.3
12 | CC(=O)c1cc2c(o1)C(=O)c1ccccc1C2=O [Napabucasin] | 10.8 | 21.8 | 15.3 | 13.4 | 14.4 | 17.2 | 22 | 19.2 | 16.7 | 17.3 | 18.9 | 16.1
13 | CC1(C)CCC(c2ccc(Cl)cc2)=C(CN2CCN(c3ccc(C(=O)NS(=O)(=O)c4ccc(N[C@H](CCN5CCOCC5)CSc5ccccc5)c(S(=O)(=O)C(F)(F)F)c4)cc3)CC2)C1 [Navitoclax] | 4.85 | 5.7 | 6.2 | 19.5 | 21.9 | 16.4 | 1.1 | < 0 | 1.8 | 4.3 | 10.1 | < 0
14 | CCOc1cc2ncc(C#N)c(Nc3ccc(OCc4ccccn4)c(Cl)c3)c2cc1NC(=O)/C=C/CN(C)C [Neratinib] | 1.15 | 9.5 | 11.9 | 16.1 | 14.1 | 8.3 | 0.6 | 5.2 | 0.45 | < 0 | 0.8 | 0.4
15 | COC(=O)c1ccc2c(c1)NC(=O)/C2=C(\Nc1ccc(N(C)C(=O)CN2CCN(C)CC2)cc1)c1ccccc1 [Nintedanib] | 0.25 | 2.5 | 8.5 | 9.9 | 1.9 | 1.2 | 4 | 4.4 | 7.2 | 2.7 | 9.4 | 1.5
16 | CC(=O)c1cnc2ccc(-c3cc(Cl)c(O)c(Cl)c3)nc2c1N[C@H]1CC[C@H](CN(C)C)CC1 [OTS167] | 11.3 | 12.4 | 12.3 | 14.7 | 13.9 | 14.6 | 15.7 | 18.8 | 10.1 | 5.8 | 8 | 10.6

Row | SMILES | drug sensitivity score [1] | drug sensitivity score [2] | drug sensitivity score [3] | drug sensitivity score [4] | drug sensitivity score [5] | drug sensitivity score [6] | drug sensitivity score [7, 10] | drug sensitivity score [7, 11] | drug sensitivity score [8, 10] | drug sensitivity score [8, 11] | drug sensitivity score [9, 10] | drug sensitivity score [9, 11]
17 | O=C(c1cc(Cc2n[nH]c(=O)c3ccccc23)ccc1F)N1CCN(C(=O)C2CC2)CC1 [Olaparib] | 3.45 | 1.5 | 3.8 | 6.1 | 9.2 | 6.1 | 6.6 | 3.2 | 3.35 | 2.6 | 3.5 | 2.5
18 | COC(=O)C[C@](O)(CCCC(C)(C)O)C(=O)O[C@@H]1C(OC)=C[C@]23CCCN2CCc2cc4c(cc2[C@H]13)OCO4 [Omacetaxine] | 23.7 | 27.2 | 22.9 | 21.3 | 25.3 | 23.8 | 20.8 | 21.6 | 23.8 | 14.3 | 21.7 | 21.7
19 | CC1(C)CC[C@]2(NC(=O)C(C)(F)F)CC[C@]3(C)[C@H](C(=O)C=C4[C@@]5(C)C=C(C#N)C(=O)C(C)(C)[C@@H]5CC[C@]43C)[C@@H]2C1 [Omaveloxolone] | 13.5 | 19.3 | 9.9 | 11.3 | 14.3 | 15.8 | 10.1 | 16.2 | 12.2 | 14.1 | 19.8 | 11.9
20 | COc1ncc(-c2ccc3nccc(-c4ccnnc4)c3c2)cc1NS(=O)(=O)c1ccc(F)cc1F [Omipalisib] | 11.7 | 17.7 | 19.8 | 21.9 | 16.5 | 20 | 9.3 | 10.5 | 17.8 | 10.8 | 17.7 | 17.7
21 | CC(C)c1cc(C(=O)N2Cc3ccc(CN4CCN(C)CC4)cc3C2)c(O)cc1O [Onalespib] | 10.4 | 9.4 | 15.1 | 12.5 | 12.8 | 10.6 | 10.3 | 11.4 | 7.1 | < 0 | < 0 | 5.4
22 | COC[C@H](NC(=O)c1cnc(C)s1)C(=O)N[C@@H](COC)C(=O)N[C@@H](Cc1ccccc1)C(=O)[C@@]1(C)CO1 [Oprozomib] | 19.5 | 23.6 | 15.9 | 11.6 | 24.9 | 19 | 23.6 | 17 | 12.6 | 18.3 | 17.3 | 10.2
23 | C=CC(=O)Nc1cc(Nc2nccc(-c3cn(C)c4ccccc34)n2)c(OC)cc1N(C)CCN(C)C [Osimertinib] | 4 | 9.5 | 11 | 14.4 | 12.5 | 9.6 | 4.1 | 4.1 | 4.8 | 4.3 | 5.9 | 3.3
24 | O=C(O)C(=O)O.[NH-][C@@H]1CCCC[C@H]1[NH-].[Pt+2] [Oxaliplatin] | 5.4 | 17.3 | 5 | 11.2 | 7.8 | 11.5 | 8.2 | 6.2 | 8.65 | 5.8 | 9.9 | 5.9
25 | COc1ccccc1S(=O)(=O)Nc1ccc2c(c1)CN(C)C(=O)N2 [PFI-1] | 1.2 | 1.6 | 0.9 | 4.9 | 1.3 | 1.3 | 2.1 | 3.4 | 7.65 | 5 | 4.4 | 8.4
26 | CN1CCN(c2cc(C(=O)Nc3ccc4c(c3)-c3c(c(C(N)=O)nn3-c3ccc(F)cc3)CC4)c(Cl)cn2)CC1 [PHA 408] | < 0 | 4.7 | 2.7 | 3.8 | 4.8 | 2.8 | 8.3 | < 0 | 2.75 | 2.3 | 7.3 | 2.8
27 | COc1cc(Br)c(Nc2nc(-c3c(C)nc4ncccn34)cs2)c(Br)c1 [PTC-209] | 6.1 | 10 | 2.2 | 4.6 | 4.3 | 6.3 | 3.7 | 9.7 | 3 | 1.5 | 1.5 | 2.3
28 | CC(=O)O[C@H]1C(=O)[C@@]2(C)[C@H]([C@H](OC(=O)c3ccccc3)[C@]3(O)C[C@H](OC(=O)[C@H](O)[C@@H](NC(=O)c4ccccc4)c4ccccc4)C(C)=C1C3(C)C)[C@]1(OC(C)=O)CO[C@@H]1C[C@@H]2O [Paclitaxel] | 15.9 | 18.4 | 18.7 | 20.8 | 10.5 | 7 | 17.3 | 11.7 | 18.1 | 3.1 | 11.1 | 15.6
29 | C1=N/C2=N/c3ccc(OCCN4CCCC4)c(c3)COC/C=C/COCc3cccc(c3)C(=C1)N2 [Pacritinib] | 6.7 | 7.7 | 7.6 | 10.6 | 7.5 | 5 | 9.3 | 10.9 | 7.05 | 9.3 | 10.1 | 9.6
30 | Cc1[nH]c2ccccc2c1CCNCc1ccc(/C=C/C(=O)NO)cc1 [Panobinostat] | 11 | 13.7 | 8.1 | 15 | 12.4 | 8.2 | 13 | 13.6 | 19 | 7.2 | 13.5 | 11.2
31 | Nc1nc2[nH]cc(CCc3ccc(C(=O)N[C@@H](CCC(=O)O)C(=O)O)cc3)c2c(=O)[nH]1 [Pemetrexed] | 2.05 | < 0 | < 0 | < 0 | 1.5 | < 0 | 0.4 | < 0 | 0.6 | 7.9 | < 0 | 1.5
32 | NS(=O)(=O)OC[C@@H]1C[C@@H](n2ccc3c(N[C@H]4CCc5ccccc54)ncnc32)C[C@@H]1O [Pevonedistat] | 3.75 | 5.2 | 9.4 | 5.7 | 7.1 | 12.2 | 16.2 | 12.4 | 6.65 | 2.6 | 3.7 | 6.5
